Test results from patent EP3539562A1, “IMMUNOTHERAPEUTIC PEPTIDES” (Eberhard Karls Universität Tübingen Medizinische Fakultät, priority 2018, dated 2019).
Entries after “also recorded” stand apart in the source; their conditions may differ.

Experiments:
IFN-β = assay: ELISA of supernatants of treated LNZ308 cells; assay type: cell-based, human; conditions: LNZ308, CT-VT-RT with or without molecular inhibitors (BX795 10 µM, fludarabine 100 µM)
Method: LNZ308 cells were seeded as 3×10^6 cells per dish and treated with different regimens as described above, supernatants were harvested after 96 hpt and concentrated using Amicon Ultra-15 Ultracel-3K centrifugal filters (Merck Millipore, Billerica, USA) with subsequent determination of total protein concentration using Bradford protein assay (Bio-Rad Laboratories). The respective chemokine/cytokine concentrations were determined enzymatically per microgram of total protein using the respective DuoSet ELISA kits according to manufacturer's instructions (R&D Systems, Minneapolis, USA).

STAT1 = assay: qPCR mRNA expression in treated LNZ308 cells; assay type: cell-based, human; conditions: inhibitor applied after CT-VT-RT treatment
Method: RNA extractions were performed using the RNeasy mini kit (Qiagen) and reversely transcribed to cDNA using High-Capacity RNA-to-cDNA kit (Thermo Fisher Scientific) according to manufacturer's instructions. For each qPCR reaction, 20 ng of cDNA were amplified with custom designed primers (Supplementary Table 1) and qPCR Mastermix Plus for SYBR Green (Eurogentec, Liege, Belgium) using the 7500 Fast Real time PCR system (Thermo Fisher Scientific). Relative gene expression was determined using the ΔΔ-CT method versus the housekeeping gene ARF1.

phospho-STAT1 (Y701) = assay: Immunoblot analysis after CT-VT-RT with signalling inhibitors; assay type: cell-based, human; conditions: inhibitor added to CT-VT-RT (BX795 10 µM, fludarabine 100 µM)
Method: Cells of interest were lysed in lysis buffer containing 25 mM Tris hydrochloric acid (Tris-HCI), 120 mM sodium chloride (NaCI), 5 mM ethylenediaminetetraacetic acid (EDTA), 0.5% NP-40 and phosphatase inhibitor cocktails (Sigma Aldrich). Proteins were separated on 4-12% polyacrylamide gels (Thermo Fisher Scientific) followed by transfer to PVDF membranes (Thermo Fisher Scientific). […] Antibody against TRAIL ([…]), LC3A ([…]) and β-tubulin (9F3) were purchased from Cell Signalling (Cell Signalling, Dan-vers, USA) and used at a dilution of 1:1,000. Anti-rabbit and Anti-mouse horseradish peroxidase coupled secondary antibodies were purchased from Abcam and used at a concentration of 1:5,000. TBK1/IKKε inhibitor, BX795 was purchased from Invivogen (Invivogen, San Diego, USA) and used at a concentration of 10 μM.

LN229 cells = assay: Acute cytotoxicity assay (cell viability, Cell titer blue); assay type: cell-based; conditions: Homo sapiens, LN-229, DMSO control
Method: (§1) LN229 and LNZ308 were seeded as 5,000 cells per well in 96 well plates one day before treatment initiation. All treatments were carried out in serum-free DMEM along with their respective controls, and cell viability measured at 72 h post initial treatment (hpt) using Cell titer blue solution (Promega, Madison, USA) as per manufacturer's instructions. The measured values were converted to percentage cell viability by normalizing each treatment to its respective control within the individual regimen.
(§2) The monotherapies with γ-irradiation and MeV effected dose responses as expected (Fig. 9) and in accordance with cell viability observed previously (Fig. 4). The CT-VT-RT initiated synergistic effect was retained when substituting TMZ by lomustine/CCNU. […] The cell viability and dose dependence in the non-synergistic regimens were similar to those previously observed in triple regimens using TMZ (Fig. 5).

LNZ308 cells = assay: as above; assay type: cell-based; conditions: Homo sapiens, DMSO control
Method: as §1, §2

GS8 cells = assay: as above; assay type: cell-based; conditions: DMSO controls
[1] = target: T1, interferon regulatory factor 1 (IRF1) (UniProt P10914 1-325); assay: proximity ligation assay in LNZ308 cells treated with CT-VT-RT plus fludarabine
T1 sequence (looked up): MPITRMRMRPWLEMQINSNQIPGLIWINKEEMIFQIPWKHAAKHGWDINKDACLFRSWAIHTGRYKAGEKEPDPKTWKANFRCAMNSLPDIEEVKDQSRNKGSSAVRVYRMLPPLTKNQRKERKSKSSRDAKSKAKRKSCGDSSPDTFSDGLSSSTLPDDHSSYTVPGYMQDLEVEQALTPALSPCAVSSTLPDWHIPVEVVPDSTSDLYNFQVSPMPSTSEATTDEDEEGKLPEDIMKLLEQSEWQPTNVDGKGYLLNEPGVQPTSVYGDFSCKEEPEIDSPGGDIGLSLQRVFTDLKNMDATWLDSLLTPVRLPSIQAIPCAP

With `O=C(NCCCNc1nc(Nc2cccc(NC(=O)N3CCCC3)c2)ncc1I)c1cccs1` [BX795] the IFN-β protein (IFN-β) was “abolished; also recorded: complete loss of IFN-β production”, the STAT1 transcription (STAT1) was “downregulated” and the STAT1 protein phosphorylation (phospho-STAT1 (Y701)) was “downregulated; also recorded: complete loss of phospho-STAT1 (Y701)”.

`O=NN(CCCl)C(=O)NC1CCCCC1` [CCNU, lomustine] gave an EC50 (LN229 cells) of 16 µM and an EC50 (LNZ308 cells) of 45 µM.

`Cn1nnc2c(C(N)=O)ncn2c1=O` [TMZ, temozolomide] showed an EC50 (GS8 cells) of 250 µM.

B1: basic leucine zipper transcriptional factor ATF2-like protein (BATF2) (other, UniProt Q8N1L9 1-274, looked up)
chain: MHLCGGNGLLTQTDPKEQQRQLKKQKNRAAAQRSRQKHTDKADALHQQHESLEKDNLALRKEIQSLQAELAWWSRTLHVHERLCPMDCASCSAPGLLGCWDQAEGLLGPGPQGQHGCREQLELFQTPGSCYPAQPLSPGPQPHDSPSLLQCPLPSLSLGPAVVAEPPVQLSPSPLLFASHTGSSLQGSSSKLSALQPSLTAQTAPPQPLELEHPTRGKLGSSPDNPSSALGLARLQSREHKPALSAATWQGLVVDPSPHPLLAFPLLSSAQVHF
B1: binds [1].
